Here are results for 2 compounds from patent publication US9999614B2, “Combination for the prophylaxis and treatment of behavioural, mental, and cognitive disorders” (LTD “VALENTA-INTELLEKT”, priority 2012, dated 2018).

The test concerns amnesia in mice, as caused by scopolamine. Put plainly: CPAR, model of amnesia caused by scopolamine. The test is classed as in vivo. Particulars: for Latent time of entering into the dark chamber / Number of mice not entered into the dark chamber, % / Number of mice taught to CPAR (%): scopolamine 1 mg/kg i.p., Melatonin 5 mg, Memantin 10 mg mono-use; for Number of mice taught to CPAR (%): agents i.p. once a day for 5 days; for Effect on scopolamine amnesia of the skill (in words): summary of Tables 3-4. The method, then: For this, the active substances Melatonin 3 mg/Memantin 10 mg, Melatonin 5 mg/Memantin 20 mg, Melatonin 10 mg/Memantin 20 mg were taken, and doses recommended for human beings were converted into doses adapted for mice according to the formula “(active substance/70(average weight of a human being))×7”. Then the compositions were dissolved in 5 mL of the solution and, according to the given formula, introduced to animals intraperitoneally once a day for 5 days.
The CPAR test is the main model for evaluating substance influences on formation and replication of short-time memory in a normal condition and in an abnormal condition, i.e., induced amnesia. The CPAR is the most informative method among the methods that are used today for evaluating efficiency of substances with influence on the CNS of mammals (see, “Manual for Experimental (Pre-Clinical) Studies of New Pharmacological Substances”, 2000). The CPAR (conditioned passive avoidance reflex in a dark, light chamber) was taught to the mice on the basis of electrodermal response according to the method proposed by Cumin et al. (1982) with due regard to the recommendations given by Mondadori et al. (1990). The installation for mice, as produced by Lafayette Instrument Co., USA, was a black chamber with the electrode floor and a white plastic platform that was arranged on the floor in the center of the chamber. The mice, one by one, were put onto the plastic platform. The animals went/jumped down onto the electrode floor where they received an electric current shock, i.e., punishment. Electric current was supplied after the time when an animal stood on the floor with all its four legs. The natural response of the animals is to go back to the current-free or safe platform. […] Tests for memorizing CPAR were conducted in successive time intervals after amnesic action. In a case where an animal went/jumped down onto the platform within 1 minute, it was recorded as having retrograde amnesia of the passive avoidance skill. The compositions were studied in comparison with Melatonin 5 mg (mono-use) and Memantin 10 mg (mono-use), according to the above formula for adapting to animal models.
The compositions under study were dissolved in 5 mL of the solution and, according to the above formula, introduced to the animals intraperitoneally, once a day for 5 days.

Structures are written as SMILES.

Regarding `COc1ccc2[nH]cc(CCNC(C)=O)c2c1` [Melatonin, N-acetyl-5-methoxytriptamine], the “Number of mice taught to CPAR (%)” value amounted to 66.7% and the “Effect on scopolamine amnesia of the skill (in words)” value is “influenced on amnesia of the skill obtained, but insignificantly”. For the same compound, for the setting “1 day after teaching”, the “Latent time of entering into the dark chamber” value (“Latent time” below) turned out to be 111.3 ± 15.7 s and the “Number of mice not entered into the dark chamber, %” value was 58.3%. Besides, where the note is “3 days after teaching”, the “Latent time” value came out at 107.4 ± 21.2 s and the “Number of mice not entered into the dark chamber, %” value was determined as 54.5%. Besides, where the note is “7 days after teaching”, the “Latent time” value came out at 105.8 ± 17.4 s and the “Number of mice not entered into the dark chamber, %” value is 45.4%. In addition, for the setting “10 days after teaching”, the “Latent time” value is given as 101.2 ± 20.6 s and the “Number of mice not entered into the dark chamber, %” value is recorded as 36.3%.

With `CC12CC3CC(C)(C1)CC(N)(C3)C2` [Memantin], the “Number of mice taught to CPAR (%)” value is on record as 70% and the “Effect on scopolamine amnesia of the skill (in words)” value is “influenced on amnesia of the skill obtained, but insignificantly”. Besides, where the note is “1 day after teaching”, the “Latent time” value is on record as 110.8 ± 25.8 s and the “Number of mice not entered into the dark chamber, %” value is 50%. For the same compound, where the note is “3 days after teaching”, the “Latent time” value is on record as 114.4 ± 18.2 s and the “Number of mice not entered into the dark chamber, %” value worked out at 60%. Also, for the setting “7 days after teaching”, the “Latent time” value was 111.1 ± 21.2 s and the “Number of mice not entered into the dark chamber, %” value worked out at 40%. Further, under “10 days after teaching”, the “Latent time” value was determined as 108.6 ± 18.7 s and the “Number of mice not entered into the dark chamber, %” value is 40%.
